Results as given in patent publication US6358885B1, “Substituted phenylheterocyclic herbicides” (Mississippi State University, priority 1992, dated 2002).

Columns and labels:
[1] = test system: chickweed; assay: Test B preemergence/postemergence greenhouse plant response rating 0 to 10; format: in vivo, Stellaria media; details: 0 to 10 scale
Outline: (§1)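 Planted seeds are treated preemergence with compound dissolved in a non-phytotoxic solvent, while postemergence applications go onto plants of two to eighteen cm. Plants stay in the greenhouse twelve to sixteen days and are then rated visually relative to controls.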

[2] = test system: corn; assay: Test C preemergence/postemergence greenhouse plant response rating 0 to 100; format: in vivo, Zea mays; details: POSTEMERGENCE; for Plant response rating, Corn: 0 to 100 scale
Outline: (§2)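 Compounds in non-phytotoxic solvent went onto sandy loam before emergence (seeded one day earlier) or onto plants at the one-to-four leaf stage. Duck salad was treated via flood water (~2.5 cm, maintained) over silt loam.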

[3] = test system: bedstraw; assay: as above; format: in vivo, Galium aparine; details: POSTEMERGENCE; for Plant response rating, Bedstraw: 0 to 100 scale
Outline: as §2

[4] = test system: downy brome; assay: as above; format: in vivo, Bromus tectorum; details: POSTEMERGENCE; for Plant response rating Downy Brome: 0 to 100 scale
Outline: as §2

[5] = test system: bedstraw; assay: Test B preemergence/postemergence greenhouse plant response rating 0 to 10; format: in vivo, Galium aparine; details: 0 to 10 scale
Outline: as §1

[6] = test system: wild oat; assay: Test C preemergence/postemergence greenhouse plant response rating 0 to 100; format: in vivo, Avena fatua; details: POSTEMERGENCE; for Plant response rating, Wild oat: 0 to 100 scale
Outline: as §2

[7] = test system: duck salad; assay: Test C flood test plant response rating 0 to 100; format: in vivo, Heteranthera limosa; details: for Plant response rating Duck salad: flood test species listed under POSTEMERGENCE, 0 to 100 scale
Outline: as §2

[8] = test system: cotton; assay: Test C preemergence/postemergence greenhouse plant response rating 0 to 100; format: in vivo, Gossypium hirsutum; details: POSTEMERGENCE; for Plant response rating, Cotton: 0 to 100 scale
Outline: as §2

[9] = test system: wheat; assay: as above; format: in vivo, Triticum aestivum; details: POSTEMERGENCE; for Plant response rating, Wheat: 0 to 100 scale
Outline: as §2

[10] = test system: sorghum; assay: as above; format: in vivo, Sorghum bicolor; details: POSTEMERGENCE; for Plant response rating, Sorghum: 0 to 100 scale
Outline: as §2

[11] = test system: sugar beet; assay: Test B preemergence/postemergence greenhouse plant response rating 0 to 10; format: in vivo, Beta vulgaris; details: 0 to 10 scale
Outline: as §1

[12] = test system: corn; assay: as above; format: in vivo, Zea mays; details: 0 to 10 scale
Outline: as §1

[13] = test system: barnyardgrass; assay: Test C flood test plant response rating 0 to 100; format: in vivo, Echinochloa crus-galli; details: for Plant response rating Barnyardgrass 2: flood test species listed under POSTEMERGENCE, 0 to 100 scale
Outline: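 Compounds in non-phytotoxic solvent applied preemergence to sandy loam one day after planting, postemergence at the 1–4 leaf stage, or to ~2.5 cm floodwater over silt loam.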

[14] = test system: morningglory; assay: Test C preemergence/postemergence greenhouse plant response rating 0 to 100; format: in vivo, Ipomoea hederacea; details: POSTEMERGENCE; for Plant response rating, Morningglory: 0 to 100 scale
Outline: as §2

[15] = test system: wild buckwheat; assay: Test B preemergence/postemergence greenhouse plant response rating 0 to 10; format: in vivo, Polygonum convolvulus; details: 0 to 10 scale
Outline: as §1

[16] = test system: giant foxtail; assay: Test C preemergence/postemergence greenhouse plant response rating 0 to 100; format: in vivo, Setaria faberii; details: POSTEMERGENCE; for Plant response rating, Giant foxtail: 0 to 100 scale
Outline: as §2

[17] = test system: velvetleaf; assay: as above; format: in vivo, Abutilon theophrasti; details: POSTEMERGENCE; for Plant response rating, Velvetleaf: 0 to 100 scale
Outline: as §2

[18] = POSTEMERGENCE section, flood test, Rate 4 g/ha
[19] = Rate 16 g/ha, under POSTEMERGENCE head (flood test species)

Fc1cc(Cl)c(OCCCl)cc1-c1nn2c(c1Cl)CCCC2 [Compound 49]
Plant response rating, Chickweed ([1]; POSTEMERGENCE, Rate 50 g/ha): 7
Plant response rating, Chickweed ([1]; POSTEMERGENCE, Rate 200 g/ha): 9
Plant response rating, Chickweed ([1]; PREEMERGENCE, Rate 50 g/ha): 0
Plant response rating, Chickweed ([1]; Rate 200 g/ha, PREEMERGENCE): 8
Plant response rating, Corn ([2]; 62 g/ha): 40
Plant response rating, Corn ([2]; 250 g/ha): 50
Plant response rating (0 to 100), Corn ([2]; Rate 4 g/ha): 10
Plant response rating (0 to 100), Corn ([2]; Rate 16 g/ha): 30
Plant response rating, Bedstraw ([3]; 62 g/ha): 70
Plant response rating, Bedstraw ([3]; 250 g/ha): 100
Plant response rating (0 to 100), Bedstraw ([3]; Rate 4 g/ha): 20
Plant response rating (0 to 100), Bedstraw ([3]; Rate 16 g/ha): 50
Plant response rating Downy Brome ([4]; 62 g/ha): 60
Plant response rating Downy Brome ([4]; 250 g/ha): 70
Plant response rating (0 to 100), Downy Brome ([4]; Rate 4 g/ha): 30
Plant response rating (0 to 100), Downy Brome ([4]; Rate 16 g/ha): 40
Plant response rating, Bedstraw ([5]; POSTEMERGENCE, Rate 50 g/ha): 9
Plant response rating, Bedstraw ([5]; POSTEMERGENCE, Rate 200 g/ha): 9
Plant response rating, Bedstraw ([5]; PREEMERGENCE, Rate 50 g/ha): 8
Plant response rating, Bedstraw ([5]; Rate 200 g/ha, PREEMERGENCE): 9
Plant response rating, Wild oat ([6]; 62 g/ha): 50
Plant response rating, Wild oat ([6]; 250 g/ha): 60
Plant response rating (0 to 100), Wild oat ([6]; Rate 4 g/ha): 20
Plant response rating (0 to 100), Wild oat ([6]; Rate 16 g/ha): 40
Plant response rating (0 to 100), Duck salad [7, 18]: 20
Plant response rating (0 to 100), Duck salad [7, 19]: 70
Plant response rating Duck salad ([7]; 62 g/ha): 90
Plant response rating Duck salad ([7]; 250 g/ha): 95
Plant response rating, Cotton ([8]; 62 g/ha): 100
Plant response rating, Cotton ([8]; 250 g/ha): 100
Plant response rating (0 to 100), Cotton ([8]; Rate 4 g/ha): 90
Plant response rating (0 to 100), Cotton ([8]; Rate 16 g/ha): 90
Plant response rating, Wheat ([9]; 62 g/ha): 50
Plant response rating, Wheat ([9]; 250 g/ha): 70
Plant response rating (0 to 100), Wheat ([9]; Rate 4 g/ha): 10
Plant response rating (0 to 100), Wheat ([9]; Rate 16 g/ha): 20
Plant response rating, Sorghum ([10]; 62 g/ha): 50
Plant response rating, Sorghum ([10]; 250 g/ha): 60
Plant response rating (0 to 100), Sorghum ([10]; Rate 4 g/ha): 30
Plant response rating (0 to 100), Sorghum ([10]; Rate 16 g/ha): 40
Plant response rating, Sugar beet ([11]; POSTEMERGENCE, Rate 50 g/ha): 10
Plant response rating, Sugar beet ([11]; PREEMERGENCE, Rate 50 g/ha): 9
Plant response rating, Sugar beet ([11]; Rate 200 g/ha, POSTEMERGENCE): 10
Plant response rating, Sugar beet ([11]; Rate 200 g/ha, PREEMERGENCE): 10
Plant response rating, Corn ([12]; POSTEMERGENCE, Rate 50 g/ha): 3
Plant response rating, Corn ([12]; POSTEMERGENCE, Rate 200 g/ha): 4
Plant response rating, Corn ([12]; PREEMERGENCE, Rate 50 g/ha): 0
Plant response rating, Corn ([12]; Rate 200 g/ha, PREEMERGENCE): 2
Plant response rating (0 to 100), Barnyardgrass 2 [13, 18]: 90
Plant response rating (0 to 100), Barnyardgrass 2 [13, 19]: 100
Plant response rating Barnyardgrass 2 ([13]; 62 g/ha): 100
Plant response rating Barnyardgrass 2 ([13]; 250 g/ha): 100
Plant response rating, Morningglory ([14]; 62 g/ha): 100
Plant response rating, Morningglory ([14]; 250 g/ha): 100
Plant response rating (0 to 100), Morningglory ([14]; Rate 4 g/ha): 40
Plant response rating (0 to 100), Morningglory ([14]; Rate 16 g/ha): 50
Plant response rating, Wild buckwheat ([15]; POSTEMERGENCE, Rate 50 g/ha): 10
Plant response rating, Wild buckwheat ([15]; PREEMERGENCE, Rate 50 g/ha): 7
Plant response rating, Wild buckwheat ([15]; Rate 200 g/ha, POSTEMERGENCE): 10
Plant response rating, Wild buckwheat ([15]; Rate 200 g/ha, PREEMERGENCE): 10
Plant response rating, Giant foxtail ([16]; 62 g/ha): 50
Plant response rating, Giant foxtail ([16]; 250 g/ha): 60
Plant response rating (0 to 100), Giant foxtail ([16]; Rate 4 g/ha): 30
Plant response rating (0 to 100), Giant foxtail ([16]; Rate 16 g/ha): 40
Plant response rating, Velvetleaf ([17]; 62 g/ha): 100
Plant response rating, Velvetleaf ([17]; 250 g/ha): 100
Plant response rating (0 to 100), Velvetleaf ([17]; Rate 4 g/ha): 50
Plant response rating (0 to 100), Velvetleaf ([17]; Rate 16 g/ha): 90
